“And” between values parts separate entries of the source, which are not always exact repeats. Identical values can stand only once.
Conditions: Liquid, Closed cell (Static) method

O=C=O [carbon dioxide]
Conditions	vapor or sublimation pressure
273.16 K	3485.7 kPa
273.17 K	3485.9 kPa
278.2 K	3977 kPa and 3975 kPa
283.15 K	4500.5 kPa and 4502 kPa
288.15 K	5090.5 kPa and 5087 kPa
293.14 K	5726.5 kPa and 5726.4 kPa
298.15 K	6436.1 kPa and 6430.1 kPa
303.15 K	7214.4 kPa
303.19 K	7212.8 kPa
303.64 K	7290.9 kPa
303.65 K	7297.4 kPa
303.85 K	7329 kPa and 7326.1 kPa
304.04 K	7360.5 kPa and 7358.8 kPa

Reference: the NIST ThermoML archive (doi:10.1016/j.jct.2019.03.027)
